Laboratory results published in ChEMBL document CHEMBL2203177, “Tuning the activity of a short arg-trp antimicrobial Peptide by lipidation of a C- or N-terminal lysine side-chain” (ACS Med Chem Lett, 2012).
≈ marks a conversion by molar mass, not a printed value. Peptide text beside a SMILES is read from it. * marks the point of attachment. Octanoyl = CCCCCCCC(=O)*

Experiments:
MCF7 [1] = assay: Selectivity index, ratio of IC50 for human GM5657 cells to IC50 for human MCF7 cells; assay type: functional
[2] = Ratio of IC50 for human GM5657 cells to MIC for Staphylococcus aureus DSM 20231; assay type: functional
[3] = Selectivity index, ratio of IC50 for human GM5657 cells to IC50 for human HT29 cells; assay type: functional
[4] = Cytotoxicity against human GM5657 cells assessed as inhibition of cell viability after 48 hrs by crystal violet assay; assay type: cell-based; conditions: GM5657, 48 h
HT-29 = assay: Cytotoxicity against human HT-29 cells assessed as inhibition of cell viability after 48 hrs by crystal violet assay; assay type: functional, cell-based; conditions: HT-29, 48 h
MCF7 [5] = assay: Cytotoxicity against human MCF7 cells assessed as inhibition of cell viability after 48 hrs by crystal violet assay; assay type: functional, cell-based; conditions: MCF7, 48 h
[6] = Hemolytic activity against human RBC assessed as hemoglobin leakage at 500 ug/ml after 5 mins; assay type: ADME, cell-based, Erythrocyte; conditions: human red blood cells, read-out: Activity
Bacillus subtilis [7] = assay: Bactericidal activity against Bacillus subtilis 168 (trpC2)2 assessed as survival rate at twice MIC concentration incubated for 15 mins measured after 18 hrs; assay type: functional, subsp. subtilis str. 168 (trpC2)2
[8] = Hemolytic activity against human RBC assessed as hemoglobin leakage; assay type: ADME, cell-based, Erythrocyte; conditions: human red blood cells
[9] = Hemolytic activity against human RBC assessed as hemoglobin leakage at 250 ug/ml; assay type: ADME, cell-based, Erythrocyte; conditions: human red blood cells, read-out: Activity
Bacillus subtilis [10] = assay: Antibacterial activity against Bacillus subtilis 168 DSM 402 assessed as growth inhibition after 18 hrs; assay type: functional; conditions: subsp. subtilis str. 168 DSM 402, 18 h
Staphylococcus aureus [11] = assay: Antibacterial activity against Staphylococcus aureus ATCC 43300 assessed as growth inhibition after 18 hrs; assay type: functional; conditions: ATCC 43300, 18 h
Staphylococcus aureus [12] = assay: Antibacterial activity against Staphylococcus aureus DSM 20231 assessed as growth inhibition after 18 hrs; assay type: functional; conditions: DSM 20231, 18 h
Pseudomonas aeruginosa = assay: Antibacterial activity against Pseudomonas aeruginosa DSM 50071 assessed as growth inhibition after 18 hrs; assay type: functional; conditions: DSM 50071, 18 h
Acinetobacter baumannii = assay: Antibacterial activity against Acinetobacter baumannii DSM 30007 assessed as growth inhibition after 18 hrs; assay type: functional; conditions: DSM 30007, 18 h
Escherichia coli = assay: Antibacterial activity against Escherichia coli DSM 30083 assessed as growth inhibition after 18 hrs; assay type: functional; conditions: DSM 30083, 18 h

## CCCCCCCC(=O)NCCCC[C@H](N)C(=O)N[C@@H](CCCNC(=N)N)C(=O)N[C@@H](Cc1c[nH]c2ccccc12)C(=O)N[C@@H](CCCNC(=N)N)C(=O)N[C@@H](Cc1c[nH]c2ccccc12)C(=O)N[C@@H](CCCNC(=N)N)C(=O)N[C@@H](Cc1c[nH]c2ccccc12)C(N)=O (H-K(Octanoyl)RWRWRW-NH2)
MCF7 [1]
  Ratio IC50: 7
[2]
  Ratio IC50: 15
[3]
  Ratio IC50: 7
[4]
  IC50: 32.5 µM
HT-29
  IC50: 4.3 µM
MCF7 [5]
  IC50: 4.6 µM
[6]
  hemolysis at 5 min, 500 ug/ml: 88%
Bacillus subtilis [7]
  Survival: 0.006%
[8]
  HC50: 114 µM
[9]
  hemolysis at 250 ug/ml: > 50%
Bacillus subtilis [10]
  MIC: 0.6 µM (≈ 0.779 µg/mL)
Staphylococcus aureus [11]
  MIC: 1 µM (≈ 1.3 µg/mL)
Staphylococcus aureus [12]
  MIC: 2 µM (≈ 2.6 µg/mL)
Pseudomonas aeruginosa
  MIC: 9 µM (≈ 11.7 µg/mL)
Acinetobacter baumannii
  MIC: 9 µM (≈ 11.7 µg/mL)
Escherichia coli
  MIC: 5 µM (≈ 6.49 µg/mL)
